For 41 compounds, IC50 results are on record in patent US10544143B2, “4-azaindole compounds” (BRISTOL-MYERS SQUIBB COMPANY, priority 2017, dated 2020).

One assay addresses human TLR7 (Homo sapiens (Human), UniProt Q9NYK1). Briefly: TLR7 inhibition reporter assay (HEK-Blue SEAP). The class given is cell-based. Particulars: HEK-Blue cells overexpressing human TLR7, SEAP reporter, gardiquimod 7.5 μM. A general note: A reporter such as luciferase makes a cellular process visible.
In the next assay the target is human TLR8 (Homo sapiens (Human), UniProt Q9NR97). Briefly: TLR8 inhibition reporter assay (HEK-Blue SEAP).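 Further: SEAP driven by IFN-β minimal promoter carrying NF-κB and AP-1 sites, compounds dosed 0.05 nM to 50 µM for 22 h, inhibition scaled between agonist-plus-DMSO and reference-inhibitor wells.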 Particulars: read-out: TLR8 IC50; HEK-Blue cells overexpressing human TLR8, SEAP reporter, R848 15.9 μM.
Chain of human TLR8 (Q9NR97 27-1041): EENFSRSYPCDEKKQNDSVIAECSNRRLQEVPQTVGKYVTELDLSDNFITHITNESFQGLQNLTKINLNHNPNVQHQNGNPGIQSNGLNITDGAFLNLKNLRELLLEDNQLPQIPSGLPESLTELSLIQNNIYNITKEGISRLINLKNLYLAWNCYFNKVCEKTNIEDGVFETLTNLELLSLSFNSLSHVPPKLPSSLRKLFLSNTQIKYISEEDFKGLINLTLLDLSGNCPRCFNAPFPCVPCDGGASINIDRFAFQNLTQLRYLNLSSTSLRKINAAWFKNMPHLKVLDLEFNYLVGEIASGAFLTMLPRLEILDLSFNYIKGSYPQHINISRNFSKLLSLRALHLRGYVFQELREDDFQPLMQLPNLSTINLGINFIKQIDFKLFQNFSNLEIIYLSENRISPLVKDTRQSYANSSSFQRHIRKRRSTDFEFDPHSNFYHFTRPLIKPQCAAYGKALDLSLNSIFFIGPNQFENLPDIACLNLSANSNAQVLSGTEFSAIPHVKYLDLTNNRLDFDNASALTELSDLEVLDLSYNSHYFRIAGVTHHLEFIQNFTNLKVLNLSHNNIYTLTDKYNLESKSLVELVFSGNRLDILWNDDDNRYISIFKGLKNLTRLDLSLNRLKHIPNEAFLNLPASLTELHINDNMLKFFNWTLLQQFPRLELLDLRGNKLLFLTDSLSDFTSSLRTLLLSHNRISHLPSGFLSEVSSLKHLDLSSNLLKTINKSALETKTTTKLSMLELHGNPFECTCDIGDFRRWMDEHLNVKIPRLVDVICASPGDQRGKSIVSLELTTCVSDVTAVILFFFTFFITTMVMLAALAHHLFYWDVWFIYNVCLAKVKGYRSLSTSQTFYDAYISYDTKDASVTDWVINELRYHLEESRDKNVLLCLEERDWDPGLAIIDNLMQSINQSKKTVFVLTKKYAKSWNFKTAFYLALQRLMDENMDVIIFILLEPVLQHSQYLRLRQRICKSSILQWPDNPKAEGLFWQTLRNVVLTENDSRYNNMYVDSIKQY
Another assay deals with human TLR9 (Homo sapiens (Human), UniProt Q9NR96). The assay can be described thus: TLR9 inhibition reporter assay (HEK-Blue SEAP).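 Further: SEAP driven by an IFN-β minimal promoter with NF-κB and AP-1 sites, read after 22 h, compounds dosed 0.05 nM–50 µM, inhibition scaled between agonist plus DMSO and reference-inhibitor wells.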 Particulars: read-out: TLR9 IC50; HEK-Blue cells overexpressing human TLR9, SEAP reporter, ODN2006 5 nM.
Chain of human TLR9 (Q9NR96 26-1032): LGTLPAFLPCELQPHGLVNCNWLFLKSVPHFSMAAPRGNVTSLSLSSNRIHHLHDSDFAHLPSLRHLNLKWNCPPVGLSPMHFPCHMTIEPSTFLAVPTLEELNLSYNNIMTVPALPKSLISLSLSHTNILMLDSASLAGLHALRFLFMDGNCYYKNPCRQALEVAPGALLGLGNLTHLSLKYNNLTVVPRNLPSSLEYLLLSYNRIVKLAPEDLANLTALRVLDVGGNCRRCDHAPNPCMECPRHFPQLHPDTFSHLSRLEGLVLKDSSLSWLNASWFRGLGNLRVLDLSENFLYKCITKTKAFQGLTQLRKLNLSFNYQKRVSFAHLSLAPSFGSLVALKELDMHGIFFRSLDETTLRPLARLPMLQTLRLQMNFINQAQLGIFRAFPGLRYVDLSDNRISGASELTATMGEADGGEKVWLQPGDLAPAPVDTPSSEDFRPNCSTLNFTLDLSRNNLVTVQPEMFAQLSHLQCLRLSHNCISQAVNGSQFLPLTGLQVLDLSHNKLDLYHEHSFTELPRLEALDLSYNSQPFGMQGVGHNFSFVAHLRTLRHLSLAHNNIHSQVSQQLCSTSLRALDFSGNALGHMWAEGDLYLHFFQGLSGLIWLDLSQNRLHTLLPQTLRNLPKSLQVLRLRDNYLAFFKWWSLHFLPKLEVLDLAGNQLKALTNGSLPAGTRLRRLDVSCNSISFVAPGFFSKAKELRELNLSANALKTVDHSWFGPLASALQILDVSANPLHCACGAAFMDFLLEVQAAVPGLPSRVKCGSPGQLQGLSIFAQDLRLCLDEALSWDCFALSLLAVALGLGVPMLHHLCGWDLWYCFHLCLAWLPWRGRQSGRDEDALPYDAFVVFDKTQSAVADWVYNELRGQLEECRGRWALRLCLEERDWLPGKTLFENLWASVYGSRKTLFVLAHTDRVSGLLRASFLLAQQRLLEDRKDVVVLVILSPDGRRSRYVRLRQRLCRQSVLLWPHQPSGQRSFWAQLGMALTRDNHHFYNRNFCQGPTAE

Each structure is given as a SMILES string.

Chain of human TLR7 (Q9NYK1 27-1049): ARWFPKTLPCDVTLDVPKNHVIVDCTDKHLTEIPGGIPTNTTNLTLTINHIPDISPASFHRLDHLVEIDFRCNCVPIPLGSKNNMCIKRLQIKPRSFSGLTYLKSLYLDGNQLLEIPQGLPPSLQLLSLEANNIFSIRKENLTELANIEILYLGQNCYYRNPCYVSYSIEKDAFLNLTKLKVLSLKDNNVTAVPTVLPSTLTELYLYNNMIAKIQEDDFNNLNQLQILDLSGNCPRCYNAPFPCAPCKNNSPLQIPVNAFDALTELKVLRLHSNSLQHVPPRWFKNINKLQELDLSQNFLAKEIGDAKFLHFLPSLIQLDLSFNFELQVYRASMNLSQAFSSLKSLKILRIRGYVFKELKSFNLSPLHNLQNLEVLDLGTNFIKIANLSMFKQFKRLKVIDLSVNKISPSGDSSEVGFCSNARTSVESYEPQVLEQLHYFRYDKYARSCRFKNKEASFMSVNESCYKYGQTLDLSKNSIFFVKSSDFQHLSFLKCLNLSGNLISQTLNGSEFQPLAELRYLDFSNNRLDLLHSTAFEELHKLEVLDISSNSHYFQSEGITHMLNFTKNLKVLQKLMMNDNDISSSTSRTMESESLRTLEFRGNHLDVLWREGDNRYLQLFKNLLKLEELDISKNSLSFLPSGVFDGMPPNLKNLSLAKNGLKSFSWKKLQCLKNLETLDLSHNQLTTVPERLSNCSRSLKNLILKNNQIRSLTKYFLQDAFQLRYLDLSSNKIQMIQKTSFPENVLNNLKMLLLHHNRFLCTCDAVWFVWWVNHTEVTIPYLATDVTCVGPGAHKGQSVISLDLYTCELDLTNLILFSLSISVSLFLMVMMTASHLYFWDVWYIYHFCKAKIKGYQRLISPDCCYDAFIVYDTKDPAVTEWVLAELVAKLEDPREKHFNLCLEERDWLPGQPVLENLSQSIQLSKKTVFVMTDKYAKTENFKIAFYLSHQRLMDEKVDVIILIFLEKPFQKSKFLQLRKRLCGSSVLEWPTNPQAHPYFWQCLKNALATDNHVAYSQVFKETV

`Cc1c(-c2[nH]c3ccc(C4CCC(NCC5CCCCS5(=O)=O)CC4)nc3c2C(C)C)cn2ncnc2c1C` (stereo not drawn) [Example 464]: the values for the IC50 at human TLR7, at human TLR8 and on human TLR9 were 0.00068 µM, 0.00085 µM and 1.77 µM, respectively.

Regarding `Cc1c(-c2[nH]c3ccc(C4CCC(NC5CCS(=O)(=O)C5)CC4)nc3c2C(C)C)cn2ncnc2c1C` (stereo not drawn) [Example 465], the values for the concentration for half-maximal inhibition (IC50) against human TLR7, on human TLR8 and at human TLR9 were 0.0011 µM, 0.0019 µM and 5.66 µM, respectively.

As to `Cc1c(-c2[nH]c3ccc(C4CCC(N)CC4)nc3c2C(C)C)cn2ncnc2c1C` (stereo not drawn) [Example 466], the concentration for half-maximal inhibition (IC50) (as a rule, the concentration that inhibits the measured activity by half) against human TLR7 amounted to 0.059 µM; on human TLR8, 0.204 µM; on human TLR9 it was 5.8 µM.

With `CCN(CC(=O)N(C)C)C1CCC(c2ccc3[nH]c(-c4cn5ncnc5c(C)c4C)c(C(C)C)c3n2)CC1` (stereo not drawn) [Example 467], the values for the IC50 at human TLR7, at human TLR8 and at human TLR9 were 0.0012 µM, 0.0035 µM and 0.413 µM, respectively.

Turning to `Cc1c(-c2[nH]c3ccc(C4CCC(N)CC4)nc3c2C(C)C)cn2ncnc2c1C` (stereo not drawn) [Example 469], the concentration for half-maximal inhibition (IC50) at human TLR7 was found to be 0.00098 µM; at human TLR8 it was 0.0029 µM; at human TLR9, 1.71 µM.

`Cc1c(-c2[nH]c3ccc(C4CCC(NC5CCS(=O)(=O)C5)CC4)nc3c2C(C)C)cn2ncnc2c1C` (stereo not drawn) [Example 470]: the concentration for half-maximal inhibition (IC50) came to 0.0013 µM against human TLR7, 0.006 µM on human TLR8 and 7.42 µM at human TLR9.

Consider `Cc1c(-c2[nH]c3ccc(C4CCC(NCC5CCCCS5(=O)=O)CC4)nc3c2C(C)C)cn2ncnc2c1C` (stereo not drawn) [Example 471], for which the IC50 against human TLR7 was found to be 0.0028 µM; at human TLR8, 0.0032 µM; on human TLR9, 4.71 µM.

Take `Cc1c(-c2[nH]c3ccc(C4CCC(NC5(C)COC5)CC4)nc3c2C(C)C)cn2ncnc2c1C` (stereo not drawn) [Example 472]: the IC50 at human TLR7 came out at 0.00034 µM; on human TLR8, 0.0011 µM; on human TLR9, 2.51 µM.

For the compound `Cc1c(-c2[nH]c3ccc(C4CCC(NC5(C)COC5)CC4)nc3c2C(C)C)cn2ncnc2c1C` (stereo not drawn) [Example 473], the figures for the half-inhibitory concentration (IC50) against human TLR7, at human TLR8 and at human TLR9 were 0.0071 µM, 0.0096 µM and 7.37 µM, respectively.

On to `Cc1c(-c2[nH]c3ccc(C4CCC(NCC5(C)COC5)CC4)nc3c2C(C)C)cn2ncnc2c1C` (stereo not drawn) [Example 474], for which the IC50 against human TLR7 came to 0.00046 µM; on human TLR8 it was 0.00043 µM; at human TLR9, 1.45 µM.

As for `Cc1c(-c2[nH]c3ccc(C4CCC(N(CC#N)CC5(S(C)(=O)=O)CC5)CC4)nc3c2C(C)C)cn2ncnc2c1C` (stereo not drawn) [Example 475], the IC50 is 0.0014 µM at human TLR7, 0.0022 µM at human TLR8 and 3.5 µM on human TLR9.

For `Cc1c(-c2[nH]c3ccc(C4CCC(N(C)CC5(S(C)(=O)=O)CC5)CC4)nc3c2C(C)C)cn2ncnc2c1C` (stereo not drawn) [Example 476], the figures for the IC50 against human TLR7, on human TLR8 and on human TLR9 were 0.00081 µM, 0.0026 µM and 9.75 µM, respectively.

With `Cc1c(-c2[nH]c3ccc(C4CCC(NCC5(C)COC5)CC4)nc3c2C(C)C)cn2ncnc2c1C` (stereo not drawn) [Example 477], the half-inhibitory concentration (IC50) against human TLR7 stood at 0.0083 µM; at human TLR8, 0.006 µM; on human TLR9, 6.16 µM.

On to `Cc1c(-c2[nH]c3ccc(C4CCC(N(CC#N)CC5(S(C)(=O)=O)CC5)CC4)nc3c2C(C)C)cn2ncnc2c1C` (stereo not drawn) [Example 478], for which the figures for the IC50 against human TLR7, on human TLR8 and on human TLR9 were 0.013 µM, 0.015 µM and 24.5 µM, respectively.

For the compound `Cc1c(-c2[nH]c3ccc(C4CCC(N(C)CC5(S(C)(=O)=O)CC5)CC4)nc3c2C(C)C)cn2ncnc2c1C` (stereo not drawn) [Example 479], the 50% inhibitory concentration (IC50) at human TLR7 is 0.0029 µM; at human TLR8, 0.01 µM; at human TLR9, 23.7 µM.

As to `CCN(CC1(S(C)(=O)=O)CC1)C1CCC(c2ccc3[nH]c(-c4cn5ncnc5c(C)c4C)c(C(C)C)c3n2)CC1` (stereo not drawn) [Example 480], the 50% inhibitory concentration (IC50) against human TLR7 came to 0.002 µM; on human TLR8, 0.014 µM; on human TLR9, 11.7 µM.

For `Cc1c(-c2[nH]c3ccc(C4CCC(N(CCO)CC5(S(C)(=O)=O)CC5)CC4)nc3c2C(C)C)cn2ncnc2c1C` (stereo not drawn) [Example 481], the results for the half-maximal inhibitory concentration (IC50) against human TLR7, on human TLR8 and on human TLR9 were 0.00082 µM, 0.0039 µM and 13 µM, respectively.

For `Cc1c(-c2[nH]c3ccc(C4CCC(N(CCO)CC5(S(C)(=O)=O)CC5)CC4)nc3c2C(C)C)cn2ncnc2c1C` (stereo not drawn) [Example 482], the IC50 on human TLR7 is 0.096 µM; at human TLR8 it was 0.238 µM; at human TLR9 it was over 50 µM.

Regarding `Cc1c(-c2[nH]c3ccc(C4CCC(NC5(CO)COC5)CC4)nc3c2C(C)C)cn2ncnc2c1C` (stereo not drawn) [Example 483], the half-maximal inhibitory concentration (IC50) on human TLR7 is 0.00094 µM; on human TLR8 it was 0.0012 µM; on human TLR9 it was 5.13 µM.

As to `Cc1c(-c2[nH]c3ccc(C4CCC(NC5(CO)COC5)CC4)nc3c2C(C)C)cn2ncnc2c1C` (stereo not drawn) [Example 484], the values for the 50% inhibitory concentration (IC50) at human TLR7, on human TLR8 and at human TLR9 were 0.0061 µM, 0.011 µM and 7.07 µM, respectively.

Regarding `Cc1c(-c2[nH]c3ccc(C4CCC(NCC(=O)NC(C)(C)C)CC4)nc3c2C(C)C)cn2ncnc2c1C` (stereo not drawn) [Example 485], the IC50 against human TLR7 is 0.0011 µM; on human TLR8, 0.0022 µM; at human TLR9, 2.52 µM.

For the compound `CNC(=O)C(C)(C)NC1CCC(c2ccc3[nH]c(-c4cn5ncnc5c(C)c4C)c(C(C)C)c3n2)CC1` (stereo not drawn) [Example 487], the IC50 came out at 0.00075 µM on human TLR7, 0.00049 µM at human TLR8 and 2.29 µM at human TLR9.

In the case of `COCCN(C)C(=O)CNC1CCC(c2ccc3[nH]c(-c4cn5ncnc5c(C)c4C)c(C(C)C)c3n2)CC1` (stereo not drawn) [Example 488], the IC50 turned out to be 0.011 µM at human TLR7, 0.0084 µM at human TLR8 and 5.36 µM on human TLR9.

As for `Cc1c(-c2[nH]c3ccc(C4CCC(NCC(=O)NC(C)(C)C)CC4)nc3c2C(C)C)cn2ncnc2c1C` (stereo not drawn) [Example 489], the IC50 on human TLR7 was 0.02 µM; at human TLR8 it was 0.02 µM; on human TLR9, 6.67 µM.

In the case of `Cc1c(-c2[nH]c3ccc(C4CCC5(CC4)CNC5)nc3c2C(C)C)cn2ncnc2c1C` [Example 491, 6-(3-isopropyl-5-(2-azaspiro[3.5]nonan-7-yl)-1H-pyrrolo[3,2-b]pyridin-2-yl)-7,8-dimethyl-[1,2,4]triazolo[1,5-a]pyridine], the IC50 against human TLR7 was determined as 0.00089 µM; at human TLR8, 0.008 µM; at human TLR9 it was 0.677 µM.

As for `Cc1c(-c2[nH]c3ccc(C4CCC5(CC4)CN(C(C)C)C5)nc3c2C(C)C)cn2ncnc2c1C` [Example 493], the values for the IC50 at human TLR7, on human TLR8 and on human TLR9 were 1.76 µM, 3.79 µM and over 50 µM, respectively.

Regarding `Cc1c(-c2[nH]c3ccc(C4CCC(NC5(C(=O)N(C)C)CCCC5)CC4)nc3c2C(C)C)cn2ncnc2c1C` (stereo not drawn) [Example 494], the values for the half-maximal inhibitory concentration (IC50) on human TLR7, at human TLR8 and at human TLR9 were 0.0052 µM, 0.0028 µM and 14.1 µM, respectively.

With `Cc1c(-c2[nH]c3ccc(C4CCC(NC(C)(C)C(=O)N(C)C)CC4)nc3c2C(C)C)cn2ncnc2c1C` (stereo not drawn) [Example 495], the IC50 is 0.0033 µM against human TLR7, 0.0013 µM on human TLR8 and 3.6 µM on human TLR9.

Take `Cc1c(-c2[nH]c3ccc(C4CCC(NC(C)(C)C(=O)N5CCOCC5)CC4)nc3c2C(C)C)cn2ncnc2c1C` (stereo not drawn) [Example 496]: the concentration for half-maximal inhibition (IC50) at human TLR7 was found to be 0.0075 µM; on human TLR8, 0.0021 µM; at human TLR9, 2.62 µM.

For the compound `COCCN(C1CCC(c2ccc3[nH]c(-c4cn5ncnc5c(C)c4C)c(C(C)C)c3n2)CC1)C1(CO)COC1` (stereo not drawn) [Example 499], the IC50 against human TLR7 was 0.607 µM; at human TLR8, 0.833 µM; at human TLR9, over 50 µM.

Turning to `COCCN(C1CCC(c2ccc3[nH]c(-c4cn5ncnc5c(C)c4C)c(C(C)C)c3n2)CC1)C1(CO)COC1` (stereo not drawn) [Example 500], the results for the IC50 against human TLR7, at human TLR8 and at human TLR9 were 0.019 µM, 0.039 µM and over 50 µM, respectively.

Consider `Cc1c(-c2[nH]c3ccc(C4CCC(N(C)CC(N)=O)CC4)nc3c2C(C)C)cn2ncnc2c1C` (stereo not drawn) [Example 501], for which the values for the half-inhibitory concentration (IC50) against human TLR7, on human TLR8 and on human TLR9 were 0.0063 µM, 0.016 µM and 9.55 µM, respectively.

`Cc1cc2[nH]c(-c3cn4ncnc4c(C)c3C)c(C(C)C)c2nc1C1CCC(NC2COC2)CC1` (stereo not drawn) [Example 502]: the IC50 on human TLR7 was 0.00079 µM; at human TLR8, 0.0051 µM; on human TLR9 it was 2.9 µM.

For `Cc1cc2[nH]c(-c3cn4ncnc4c(C)c3C)c(C(C)C)c2nc1C1CCC(NC2COC2)CC1` (stereo not drawn) [Example 503], the half-maximal inhibitory concentration (IC50) was found to be 0.0014 µM against human TLR7, 0.0092 µM at human TLR8 and 2.5 µM at human TLR9.

Take `Cc1c(-c2[nH]c3cc(F)c(C4CCC(NC5CCOCC5)CC4)nc3c2C(C)C)cn2ncnc2c1C` (stereo not drawn) [Example 504]: the figures for the IC50 against human TLR7, at human TLR8 and on human TLR9 were 0.00055 µM, 0.00064 µM and 3.74 µM, respectively.

Regarding `Cc1c(-c2[nH]c3cc(F)c(C4CCC(NC5CCOCC5)CC4)nc3c2C(C)C)cn2ncnc2c1C` (stereo not drawn) [Example 505], the IC50 against human TLR7 was determined as 0.0035 µM; on human TLR8, 0.0049 µM; at human TLR9 it was 7.6 µM.

Turning to `Cc1c(-c2[nH]c3cc(F)c(C4CCC(N)CC4)nc3c2C(C)C)cn2ncnc2c1C` (stereo not drawn) [Example 506], the half-inhibitory concentration (IC50) at human TLR7 was determined as 0.00041 µM; at human TLR8, 0.00042 µM; at human TLR9, 3.18 µM.

For `Cc1c(-c2[nH]c3cc(F)c(C4CCC(N)CC4)nc3c2C(C)C)cn2ncnc2c1C` (stereo not drawn) [Example 507], the IC50 at human TLR7 stood at 0.0011 µM; at human TLR8, 0.0024 µM; on human TLR9, 8.49 µM.

On to `CCN(CC(=O)N(C)C)C1CCC(c2nc3c(C(C)C)c(-c4cn5ncnc5c(C)c4C)[nH]c3cc2F)CC1` (stereo not drawn) [Example 508], for which the values for the IC50 on human TLR7, at human TLR8 and on human TLR9 were 0.0011 µM, 0.0033 µM and 6.85 µM, respectively.

In the case of `CCN(CC(=O)N(C)C)C1CCC(c2nc3c(C(C)C)c(-c4cn5ncnc5c(C)c4C)[nH]c3cc2F)CC1` (stereo not drawn) [Example 509], the IC50 was 0.017 µM against human TLR7, 0.03 µM on human TLR8 and 9.11 µM at human TLR9.

`CCN(CCS(C)(=O)=O)C1CCC(c2nc3c(C(C)C)c(-c4cn5ncnc5c(C)c4C)[nH]c3cc2F)CC1` (stereo not drawn) [Example 510]: the values for the IC50 against human TLR7, on human TLR8 and on human TLR9 were 0.0059 µM, 0.028 µM and over 50 µM, respectively.
